# Test results: paper PMC10252614 (International Journal of Molecular Sciences, 2023)
# “Also recorded” adds a separate entry of the source.
# Assays:
# [1] = tested on: SH-SY5Y cells; assay: glutathione levels, monochlorobimane assay; type: cell-based, human; settings: 10 µM, 24 h
# Procedure: Next, we tested the effects of the compounds on intracellular dehydrogenase activity and glutathione levels. […] To evaluate the effects of the compounds on cells, we measured total intracellular dehydrogenase activity as a marker of cellular viability and glutathione levels for evaluation of oxidative stress (Table 6).
# The glutathione (GSH) levels were measured using an optimized monochlorobimane assay. The working solutions of monochlorobimane (MCB, Merck, Rahway, NJ, USA) were prepared fresh at the time of analysis by dilution in Dulbecco’s phosphate buffer (PBS; pH 7; 1 µM, Merck, USA) and tempered at 37 °C for 30 min. After the treatment of cells with I-6e (100 µM), I-6h (100 µM), II-6e (100 µM), II-6h (10–100 µM) and III-6a (10–100 µM), 20 μL of the MCB solution was added to the cells in 96-well microplates and the measurement started immediately (final concentration of MCB in a well was 40 μmol/L) The fluorescence intensity (Ex/Em = 394/490 nm) was measured kinetically for 20 min using SPARK microplate reader (Tecan, Austria). The fluorescence was expressed as the slope of a fluorescence change over time. The GSH levels were expressed as the percentage relative to the GSH levels in control cells (control = 100%).
# [2] = molecular target: T1, hMAO-B (Homo sapiens, UniProt P27338); assay: in vitro inhibition of hMAO-B, kynuramine fluorescence assay; type: biochemical
# T1 construct: purchased Merck (Prague, Czech Republic)
# T1 sequence (P27338 1-520): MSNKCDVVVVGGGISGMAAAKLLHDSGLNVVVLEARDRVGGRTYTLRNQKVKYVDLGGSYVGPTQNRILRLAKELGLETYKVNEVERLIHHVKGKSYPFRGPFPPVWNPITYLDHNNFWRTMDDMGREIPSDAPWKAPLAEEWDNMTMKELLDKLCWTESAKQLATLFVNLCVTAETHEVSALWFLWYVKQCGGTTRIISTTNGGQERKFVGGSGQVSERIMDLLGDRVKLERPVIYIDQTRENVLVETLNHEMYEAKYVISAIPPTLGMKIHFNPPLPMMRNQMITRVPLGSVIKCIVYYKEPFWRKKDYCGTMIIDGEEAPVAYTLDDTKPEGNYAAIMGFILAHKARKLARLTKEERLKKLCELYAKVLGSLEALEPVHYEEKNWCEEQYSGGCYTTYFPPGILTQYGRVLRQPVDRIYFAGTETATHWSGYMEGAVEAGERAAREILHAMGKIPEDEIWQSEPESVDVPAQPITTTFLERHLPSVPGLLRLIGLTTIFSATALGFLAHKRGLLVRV
# Procedure: (§1) The hMAO-A and hMAO-B enzymes were purchased from Merck (Prague, Czech Republic). […] The mixture was pre-incubated at 37 °C for 15 min and subsequently substrate kynuramine was added to the final concentration of 100 µM. The final volume of reaction mixture was 0.1 mL. The whole reaction mixture was incubated at 37 °C for 30 min. The reaction was stopped by the addition of 20 µL 4M NaOH.
# [3] = molecular target: T1, hMAO-B; assay: hMAO-B inhibition mechanism: dialysis reversibility and kinetics; type: biochemical; settings: for mode of hMAO-B inhibition: non-linear regression according to Michaelis–Menten
# Procedure: (§2) The MAOs were subsequently incubated with selected compounds at different concentrations and evaluated by non-linear regression according to Michaelis–Menten (Figure 5).
# (§3) Inhibition mechanism was determined by non-linear regression and the double reciprocal method by Lineweaver–Burk using GraphPad Prism 8.2 software. […] The recovery of enzyme activity was determined using the above-mentioned protocol.
# [4] = tested on: differentiated SH-SY5Y cells; assay: MTT viability of differentiated SH-SY5Y; type: cell-based, human; settings: concentration equal to IC50 from undifferentiated model, 24 h
# Procedure: Then, the differentiated SH-SY5Y cells were treated with concentrations corresponding to the IC50 values obtained from the cytotoxicity measurement using undifferentiated SH-SY5Y cells. Cells were exposed to a tested compound for 24 h. Then, the medium was replaced by a medium containing 10 μM of MTT and cells were allowed to produce formazan for another, approximately 3 h under surveillance. Thereafter, the medium was aspirated and purple crystals of MTT formazan were dissolved in 100 μL DMSO under shaking. Cell viability was assessed spectrophotometrically by the amount of formazan produced. Absorbance was measured at 570 nm with 650 nm reference wavelength on Spark (Tecan Group Ltd., Männedorf, Switzerland). The IC50 value was then calculated from the control-subtracted triplicates using non-linear regression (four parameters) of GraphPad Prism 9 software. Final IC50 and SEM values were obtained as a mean of three.
# [5] = tested on: SH-SY5Y cells; assay: nuclear condensation and fragmentation, Hoechst 33258 assay; type: cell-based, human; settings: 100 µM, 24 h
# Procedure: Thus, SH-SY5Y cells were incubated with II-6h and III-6a (10 and 100 µM) for 24 h. After the treatment, dehydrogenase activity, glutathione levels, nuclear condensation and fragmentation, and ATP levels were measured (Figure 7). […] The decrease in dehydrogenase activity was found in cells treated with 100 µM II-6h (p < 0.001).
# To measure nuclear condensation and fragmentation in intact cells, we used fluorescence dye Hoechst 33258 (H33258, 1 mg/mL; Merck, USA). After cell treatment with II-6h (10–100 µM) and III-6a (10–100 µM), the cells grown in a 96-well plate were centrifuged (5 min; 8000g; RT). Then, 70 µL of a supernatant was replaced with 70 µL of PBS 1× and 10 µL of H33258 solution was added to a well. The final concentrations of H33258 in a well was 2 µg/mL. Then, the cells were incubated with H33258 for 5 min and spectrofluorometric measurement was performed at Ex/Em = 352/461 nm using SPARK microplate reader (Tecan, Austria) while incubated at 37 °C. The samples were measured at least in triplicates. After background subtraction, the fluorescence signal was presented in RFU as mean ± SEM.
# [6] = molecular target: T2, hMAO-A (Homo sapiens, UniProt P21397); assay: in vitro inhibition of hMAO-A, kynuramine fluorescence assay; type: biochemical
# T2 construct: purchased Merck (Prague, Czech Republic)
# T2 sequence (P21397 1-527): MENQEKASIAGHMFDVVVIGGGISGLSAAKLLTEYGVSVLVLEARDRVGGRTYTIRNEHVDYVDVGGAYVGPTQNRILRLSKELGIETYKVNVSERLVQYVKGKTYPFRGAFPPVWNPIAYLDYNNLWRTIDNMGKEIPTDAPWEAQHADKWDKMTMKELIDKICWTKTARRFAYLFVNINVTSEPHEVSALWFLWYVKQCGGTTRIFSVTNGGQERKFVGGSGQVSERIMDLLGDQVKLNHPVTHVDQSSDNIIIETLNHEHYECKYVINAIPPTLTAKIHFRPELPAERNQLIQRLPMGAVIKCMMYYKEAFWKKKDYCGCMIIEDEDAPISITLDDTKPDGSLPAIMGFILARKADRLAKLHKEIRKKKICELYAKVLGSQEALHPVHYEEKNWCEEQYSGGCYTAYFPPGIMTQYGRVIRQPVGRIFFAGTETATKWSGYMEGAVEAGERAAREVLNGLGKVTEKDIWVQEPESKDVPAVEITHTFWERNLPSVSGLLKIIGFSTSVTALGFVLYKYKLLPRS
# Procedure: as §1
# [7] = molecular target: T2, hMAO-A; assay: hMAO-A inhibition mechanism: dialysis reversibility and kinetics; type: biochemical; settings: non-linear regression according to Michaelis–Menten
# Procedure: as §2, §3
Structure (SMILES),change in glutathione levels (in words) [1],IC50 [2] [nM],selectivity profile hMAO-A vs hMAO-B (in words) [2],mode of hMAO-B inhibition [3],reversible/irreversible inhibitory action towards hMAO-B ([3]; recovery of enzyme activity after dialysis),effect on viability of differentiated SH-SY5Y (in words) [4],nuclear condensation and fragmentation (in words) [5],IC50 [6] [nM],SI for MAO-B ([2]; IC50(MAO-A)/IC50(MAO-B)),mode of hMAO-A inhibition [7]
"C#CCN(C)c1nc(NC2CCCCC2)c2ccc(Cl)cc2n1 [II-6h, 7-chloro-N4-cyclohexyl-N2-methyl-N2-(prop-2-yn-1-yl)quinazoline-2,4-diamine]",no significant changes,330 ± 20,hMAO-B selective inhibitors,mixed mode inhibition,only a partial recovery,did not exhibit any cytotoxic effects; also recorded: lost the cytotoxic effect,significant increase,,,
"C#CCN(C)c1nc(NC2CCCCC2)c2ccccc2n1 [I-6h, N4-cyclohexyl-N2-methyl-N2-(prop-2-yn-1-yl)quinazoline-2,4-diamine]",,8690 ± 120,"inhibitor of both hMAO isoforms, with a preference for hMAO-B inhibition",mixed mode inhibition,,no difference from the undifferentiated model,,900 ± 170,0.10,mixed mode inhibition
"C#CCN(C)c1nc(N)c2cc(OC)ccc2n1 [III-6a, 6-methoxy-N2-methyl-N2-(prop-2-yn-1-yl)quinazoline-2,4-diamine]",no significant changes,,hMAO-A selective inhibitors,,,no difference from the undifferentiated model,significant increase,620 ± 40,,mixed mode inhibition
"C#CCN(C)c1nc(NCCCC)c2ccccc2n1 [I-6e, N4-butyl-N2-methyl-N2-(prop-2-yn-1-yl)quinazoline-2,4-diamine]",,,hMAO-A selective inhibitors,,,no difference from the undifferentiated model,,2600 ± 230,,
